This test addresses T1, HEK cells stably transfected with tetracycline inducible hNR1 and hNR2A (Homo sapiens, UniProt Q05586+Q12879).
T1 construct: expressed in transfected cells; host or cells: HEK cells, stably transfected, tetracycline/doxycycline inducible
Kind of test: Assay 1: Cell-Based Assay, cytosolic calcium response to positive allosteric modulators (with 30 μM glycine and 300 nM L-glutamate, EC30). To be noted: Table 2; for EC50: cytosolic calcium response, with 30 μM glycine and 300 nM L-glutamate (EC30), — = no plateau was reached; for Max %: responses scaled relative to 100 μM L-glutamate maximal response (100%) and 0 μM L-glutamate (0%). In outline:
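Cells induced 24 h with 7.5 μg mL^−1 doxycycline plus 500 μM (+)-ketamine, loaded 60 min at 37 °C with calcium dye in Mg-free HBSS (1.8 mM Ca, probenecid, 10 μM (+)-ketamine, pH 7.15). Peak RFU over 5 min after compound addition, scaled to 100 μM L-glutamate (100%) and 0 μM (0%); four-parameter Hill fit for EC50, max % if no plateau.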

T1 sequence (Q12879 23-1464, other chains not shown): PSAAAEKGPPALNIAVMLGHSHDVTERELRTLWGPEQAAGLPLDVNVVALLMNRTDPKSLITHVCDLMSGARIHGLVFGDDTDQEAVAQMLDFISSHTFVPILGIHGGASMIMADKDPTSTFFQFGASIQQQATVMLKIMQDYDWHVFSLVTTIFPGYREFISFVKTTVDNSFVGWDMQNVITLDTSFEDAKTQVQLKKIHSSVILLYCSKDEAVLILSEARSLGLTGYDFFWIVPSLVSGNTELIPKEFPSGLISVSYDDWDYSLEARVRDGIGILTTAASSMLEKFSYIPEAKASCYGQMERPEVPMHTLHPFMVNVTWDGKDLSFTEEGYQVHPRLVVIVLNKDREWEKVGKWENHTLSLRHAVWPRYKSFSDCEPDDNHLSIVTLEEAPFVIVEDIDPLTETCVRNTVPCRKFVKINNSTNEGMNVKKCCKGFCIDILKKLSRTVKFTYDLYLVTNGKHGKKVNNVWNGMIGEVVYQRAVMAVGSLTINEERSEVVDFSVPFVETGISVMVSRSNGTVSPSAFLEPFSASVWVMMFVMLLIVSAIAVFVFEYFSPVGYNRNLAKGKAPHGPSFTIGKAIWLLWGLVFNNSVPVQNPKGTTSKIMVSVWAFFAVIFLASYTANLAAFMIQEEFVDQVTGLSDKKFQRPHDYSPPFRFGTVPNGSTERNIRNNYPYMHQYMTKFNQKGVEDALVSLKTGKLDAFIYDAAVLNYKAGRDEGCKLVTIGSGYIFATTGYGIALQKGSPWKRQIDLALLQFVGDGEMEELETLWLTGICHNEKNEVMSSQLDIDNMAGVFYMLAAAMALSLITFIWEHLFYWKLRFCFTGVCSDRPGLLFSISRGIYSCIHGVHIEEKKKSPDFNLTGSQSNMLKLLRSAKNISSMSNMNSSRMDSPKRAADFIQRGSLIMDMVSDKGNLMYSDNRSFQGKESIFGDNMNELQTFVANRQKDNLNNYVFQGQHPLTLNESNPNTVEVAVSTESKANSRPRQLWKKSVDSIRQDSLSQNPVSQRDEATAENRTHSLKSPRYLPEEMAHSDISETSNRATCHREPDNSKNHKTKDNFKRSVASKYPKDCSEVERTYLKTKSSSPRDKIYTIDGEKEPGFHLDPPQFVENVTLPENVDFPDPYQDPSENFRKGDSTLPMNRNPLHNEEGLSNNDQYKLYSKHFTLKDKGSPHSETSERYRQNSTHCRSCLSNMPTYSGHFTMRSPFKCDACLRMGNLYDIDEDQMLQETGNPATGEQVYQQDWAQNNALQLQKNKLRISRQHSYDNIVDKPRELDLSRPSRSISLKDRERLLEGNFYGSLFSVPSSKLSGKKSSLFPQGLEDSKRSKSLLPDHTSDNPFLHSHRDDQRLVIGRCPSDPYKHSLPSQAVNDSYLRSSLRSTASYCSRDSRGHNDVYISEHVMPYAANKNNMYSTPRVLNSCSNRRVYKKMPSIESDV

With `Cc1sc2nc(CN3c4ccc(F)cc4CC3C)cc(=O)n2c1-c1ccco1` (stereo not shown) [Example 5.46, 7-((5-fluoro-2-methylindolin-1-yl)methyl)-3-(furan-2-yl)-2-methyl-5H-thiazolo[3,2-a]pyrimidin-5-one], the EC50 was 3.8 µM and the Max % amounted to 155%. For `CCN(Cc1cc(=O)n2c(-c3ccsc3)c(C)sc2n1)c1ccc(F)cc1` [Example 5.47, 7-((ethyl(4-fluorophenyl)amino)methyl)-2-methyl-3-(thiophen-3-yl)-5H-thiazolo[3,2-a]pyrimidin-5-one], the EC50 amounted to 0.976 µM and the Max % turned out to be 151%. Consider `Cc1sc2nc(CN3c4ccc(F)cc4CC3C)cc(=O)n2c1-c1cncnc1` (stereo not shown) [Example 5.48, 7-((5-fluoro-2-methylindolin-1-yl)methyl)-2-methyl-3-(pyrimidin-5-yl)-5H-thiazolo[3,2-a]pyrimidin-5-one], for which the EC50 came out at 6.2 µM and the Max % came out at 136%. Consider `CCN(Cc1cc(=O)n2c(-c3nc(C)cs3)c(C)sc2n1)c1ccc(F)cc1` [Example 5.49, 7-((ethyl(4-fluorophenyl)amino)methyl)-2-methyl-3-(4-methylthiazol-2-yl)-5H-thiazolo[3,2-a]pyrimidin-5-one], for which the EC50 amounted to 12.9 µM and the Max % amounted to 127%.

Turning to `CCN(Cc1cc(=O)n2c(-c3ccc(=O)[nH]c3)c(C)sc2n1)c1ccc(F)cc1` [Example 5.50, 7-((ethyl(4-fluorophenyl)amino)methyl)-2-methyl-3-(6-oxo-1,6-dihydropyridin-3-yl)-5H-thiazolo[3,2-a]pyrimidin-5-one], the Max % was 96.8%. As to `CCN(Cc1cc(=O)n2c(-c3ccc(N)nc3)c(C)sc2n1)c1ccc(F)cc1` [Example 5.51, 3-(6-aminopyridin-3-yl)-7-((ethyl(4-fluorophenyl)amino)methyl)-2-methyl-5H-thiazolo[3,2-a]pyrimidin-3-one], the EC50 worked out at 40.7 µM and the Max % came out at 80.3%. As for `CC#Cc1c(C)sc2nc(CN(CC)c3ccc(F)cc3)cc(=O)n12` [Example 5.52], the EC50 was found to be 1.6 µM and the Max % came out at 58%. For `C=Cc1c(C)sc2nc(CN(CC)c3ccc(F)cc3)cc(=O)n12` [Example 5.53, 7-((ethyl(4-fluorophenyl)amino)methyl)-2-methyl-3-vinyl-5H-thiazolo[3,2-a]pyrimidin-5-one], in that order: 1.3 µM and 153%. Turning to `CCN(Cc1cc(=O)n2c(Br)c(C3CC3)sc2n1)c1ccc(F)cc1` [Example 5.54, 3-bromo-2-cyclopropyl-7-[(N-ethyl-4-fluoro-anilino)methyl]thiazolo[3,2-a]pyrimidin-5-one], the EC50 was found to be 51.5 µM and the Max % is reported as 129%. Consider `CCN(Cc1cc(=O)n2c(-c3cc(F)cc(F)c3)c(C)sc2n1)c1ccc(F)cc1` [Example 5.55, 3-(3,5-difluorophenyl)-7-[(N-ethyl-4-fluoro-anilino)methyl]-2-methyl-thiazolo[3,2-a]pyrimidin-5-one], for which the EC50 is 4.7 µM and the Max % amounted to 111%. In the case of `CCN(Cc1cc(=O)n2c(-c3ccn(C)n3)c(C)sc2n1)c1ccc(F)cc1` [Example 5.56, 7-[(N-ethyl-4-fluoro-anilino)methyl]-2-methyl-3-(1-methylpyrazol-3-yl)thiazolo[3,2-a]pyrimidin-5-one], the Max % is on record as 110%. Take `CCN(Cc1cc(=O)n2c(-c3ccnc(N)c3)c(C)sc2n1)c1ccc(F)cc1` [Example 5.57, 3-(2-amino-4-pyridyl)-7-[(N-ethyl-4-fluoro-anilino)methyl]-2-methyl-thiazolo[3,2-a]pyrimidin-5-one]: the EC50 stood at 6.4 µM and the Max % was 120%.

In the case of `CCN(Cc1cc(=O)n2c(-c3cncc(OC)c3)c(C)sc2n1)c1ccc(F)cc1` [Example 5.58, 7-[(N-ethyl-4-fluoro-anilino)methyl]-3-(5-methoxy-3-pyridyl)-2-methyl-thiazolo[3,2-a]pyrimidin-5-one], the concentration for a half-maximal effect (EC50) amounted to 5.1 µM and the Max % was determined as 120%. Consider `CCN(Cc1cc(=O)n2c(N3CCOCC3)c(C)sc2n1)c1ccc(F)cc1` [Example 6.1, 7-((ethyl(4-fluorophenyl)amino)methyl)-2-methyl-3-morpholino-5H-thiazolo[3,2-a]pyrimidin-5-one], for which the EC50 worked out at 10 µM and the Max % is 123%. On the same counts, the results for `CCN(Cc1cc(=O)n2c(N(C)C)c(C)sc2n1)c1ccc(F)cc1` [Example 6.2, 3-(dimethylamino)-7-((ethyl(4-fluorophenyl)amino)methyl)-2-methyl-5H-thiazolo[3,2-a]pyrimidin-5-one] are 5 µM and 121%.

Turning to `CCN(Cc1cc(=O)n2c(N3CCCC3)c(C)sc2n1)c1ccc(F)cc1` [Example 6.3, 7-((ethyl(4-fluorophenyl)amino)methyl)-2-methyl-3-(pyrrolidin-1-yl)-5H-thiazolo[3,2-a]pyrimidin-5-one], the EC50 amounted to 10.1 µM and the Max % is listed as 91.9%. For `CCN(Cc1cc(=O)n2c(C#N)c(C)sc2n1)c1ccc(F)c(F)c1` [Example 7.1, 7-(((3,4-difluorophenyl)(ethyl)amino)methyl)-2-methyl-5-oxo-5H-thiazolo[3,2-a]pyrimidine-3-carbonitrile], the EC50 came out at 0.853 µM and the Max % is given as 184%. On to `CCN(Cc1cc(=O)n2c(C#N)c(C)sc2n1)c1cccc(F)c1` [Example 7.2, 7-((ethyl(3-fluorophenyl)amino)methyl)-2-methyl-5-oxo-5H-thiazolo[3,2-a]pyrimidine-3-carbonitrile], for which the EC50 was 0.612 µM and the Max % worked out at 134%.

Take `CCN(Cc1cc(=O)n2c(C#N)c(C)sc2n1)c1ccc(F)cc1` [Example 7.3, 7-[(N-ethyl-4-fluoro-anilino)methyl]-2-methyl-5-oxo-thiazolo[3,2-a]pyrimidine-3-carbonitrile]: the EC50 was 0.376 µM and the Max % worked out at 156%. For `CCN(Cc1cc(=O)n2c(C#N)csc2n1)c1ccc(F)cc1` [Example 7.4, 7-[(N-ethyl-4-fluoro-anilino)methyl]-5-oxo-thiazolo[3,2-a]pyrimidine-3-carbonitrile], the EC50 was found to be 5.7 µM and the Max % was determined as 166%. On the same counts, the results for `Cc1sc2nc(CN3c4ccc(F)cc4CC3C)cc(=O)n2c1C#N` (stereo not shown) [Example 7.5, 7-((5-fluoro-2-methylindolin-1-yl)methyl)-2-methyl-5-oxo-5H-thiazolo[3,2-a]pyrimidine-3-carbonitrile] are 2.1 µM and 162%. Take `CCN(Cc1cc(=O)n2c(C#N)c(C)sc2n1)c1cccc(C#N)c1` [Example 7.6, 7-(((3-cyanophenyl)(ethyl)amino)methyl)-2-methyl-5-oxo-5H-thiazolo[3,2-a]pyrimidine-3-carbonitrile]: the EC50 was 3.7 µM and the Max % was 151%. Consider `CCN(Cc1cc(=O)n2c(C#N)c(C)sc2n1)c1ccccn1` [Example 7.7, 7-((ethyl(pyridin-2-yl)amino)methyl)-2-methyl-5-oxo-5H-thiazolo[3,2-a]pyrimidine-3-carbonitrile], for which the EC50 came to 21 µM and the Max % was determined as 148%.

Take `Cc1sc2nc(CN3c4ccccc4CC3C)cc(=O)n2c1C#N` (stereo not shown) [Example 7.8, 2-methyl-7-((2-methylindolin-1-yl)methyl)-5-oxo-5H-thiazolo[3,2-a]pyrimidine-3-carbonitrile]: the EC50 was determined as 2.5 µM and the Max % is listed as 126%. For `CCN(Cc1cc(=O)n2c(C#N)c(C)sc2n1)c1cc(F)cc(F)c1` [Example 7.9, 7-(((3,5-difluorophenyl)(ethyl)amino)methyl)-2-methyl-5-oxo-5H-thiazolo[3,2-a]pyrimidine-3-carbonitrile], in that order: 1.3 µM and 121%. On the same counts, the results for `CCN(Cc1cc(=O)n2c3c(sc2n1)CCC3)c1ccc(F)cc1` [Example 8.1, 6-[(N-ethyl-4-fluoro-anilino)methyl]-2,3-dihydro-1H-cyclopenta[3,4]thiazolo[1,4-a]pyrimidin-8-one] are 5.2 µM and 146%. Take `CCN(Cc1cc(=O)n2c3c(sc2n1)CCCC3)c1ccc(F)cc1` [Example 8.2, 2-[(N-ethyl-4-fluoro-anilino)methyl]-6,7,8,9-tetrahydropyrimido[2,1-b][1,3]benzothiazol-4-one]: the EC50 stood at 7.2 µM and the Max % amounted to 122%. Regarding `CCN(Cc1cc(=O)n2c3c(sc2n1)CCC3CO)c1ccc(F)cc1` (stereo not shown) [Example 8.5, 6-[(N-ethyl-4-fluoro-anilino)methyl]-1-(hydroxymethyl)-2,3-dihydro-1H-cyclopenta[3,4]thiazolo[1,4-a]pyrimidin-8-one], the EC50 came to 16.9 µM and the Max % was 114%.

`CCN(Cc1cc(=O)n2c3c(sc2n1)CCC31CCCC1)c1ccc(F)cc1` [Example 8.6, 6-[(N-ethyl-4-fluoro-anilino)methyl]spiro[2,3-dihydrocyclopenta[3,4]thiazolo[1,4-a]pyrimidine-1,1′-cyclopentane]-8-one]: the Max % came out at 60.5%. Same read-out and setting: then `CCN(Cc1cc(=O)n2c3c(sc2n1)CCC3=O)c1ccc(F)cc1` [Example 8.7, 6-[(N-ethyl-4-fluoro-anilino)methyl]-2,3-dihydrocyclopenta[3,4]thiazolo[1,4-a]pyrimidine-1,8-dione], with 81.4%. `CCN(Cc1cc(=O)n2c3c(sc2n1)CCC3(C)C)c1ccc(F)cc1` [Example 8.8, 6-[(N-ethyl-4-fluoro-anilino)methyl]-1,1-dimethyl-2,3-dihydrocyclopenta[3,4]thiazolo[1,4-a]pyrimidin-8-one]: the EC50 came to 8.7 µM and the Max % is recorded as 108%.

The values above are taken from US9988400B2 (Genentech, Inc., priority 2013, dated 2018).
